# US20220088146A1, “Melanocortin Receptor-Specific Peptide Formulations and Methods for Gastrointestinal Tract-Specific Delivery” (Palatin Technologies, Inc., priority 2018, published 2022)
# Ends that are not written are not given here.
# Legend:
# hMC1r [1] = target: T1, hMC1r (Homo sapiens, UniProt Q01726); experiment: Assay for agonist activity: cAMP accumulation in HBL melanoma cells; type: cell-based; design: endogenous in cells; host or cells: HBL human melanoma cells; settings: for Emax: HBL, compared to NDP-α-MSH as 100%, read-out: MC-1 Emax (average; cAMP HBL); for EC50: read-out: MC-1 EC50 (average; cAMP HBL)
# T1 sequence (Q01726 whole entry): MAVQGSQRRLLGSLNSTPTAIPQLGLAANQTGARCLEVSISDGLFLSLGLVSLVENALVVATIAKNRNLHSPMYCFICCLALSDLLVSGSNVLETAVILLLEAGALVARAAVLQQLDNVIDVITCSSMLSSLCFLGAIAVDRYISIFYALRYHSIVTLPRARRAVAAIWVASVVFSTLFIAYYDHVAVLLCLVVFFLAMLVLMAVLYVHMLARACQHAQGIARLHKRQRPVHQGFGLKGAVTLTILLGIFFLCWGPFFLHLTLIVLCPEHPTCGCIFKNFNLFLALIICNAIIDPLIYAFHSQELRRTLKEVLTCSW
# Experimental: 8.2 Assay for Agonist Activity.
# Confluent HBL cells that express hMC1r or HEK-293 cells that express recombinant hMC4r were detached from culture plates by incubation in enzyme-free cell dissociation buffer. Dispersed cells were suspended in Earle's Balanced Salt Solution containing 10 mM HEPES (pH 7.5), 1 mM MgCl2, 1 mM glutamine, 0.5% albumin and 0.3 mM 3-isobutyl-1-methyl-xanthine (IBMX), a phosphodiesterase inhibitor. The cells were plated in 96-well plates at a density of 0.4×10^5 cells per well for HBL cells and 0.5×10^5 cells per well for HEK-293 cells and pre-incubated for 10 minutes. Cells were exposed for 15 minutes at 37° C. to peptides of the present invention dissolved in DMSO (final DMSO concentration of 1%) at a concentration range of 0.05-5000 nM in a total assay volume of 200 μL. […] Data analysis was performed by nonlinear regression analysis with Graph-Pad Prism® software.
# (§1) All results are expressed in nM except for Emax values, which are percentage values. Peptides with the captioned primary sequence were synthesized and purified as described in Section 7 above, with the resulting peptide having the structure depicted.
# hMC1r [2] = target: T1, hMC1r; experiment: Competitive inhibition binding assay using [I125]-NDP-α-MSH, hMC1r membranes; settings: human recombinant MC1r, HEK-293 membranes, read-out: MC-1 Ki (average)
# Experimental: (§2) A competitive inhibition binding assay was performed using membrane homogenates prepared from HEK-293 cells that express recombinant hMC1r or hMC4r (in each instance where the h prefix refers to human), or alternatively membrane homogenates from B16-F10 mouse melanoma cells containing endogenous murine MC1r. In the examples that follow, all MC1r and MC4r values are for human recombinant receptors, unless otherwise noted. Assays were performed in 96 well polypropylene round-bottom plates (VWR catalog number 12777-030). […] After incubation for 90 minutes at 37° C., the assay mixture was filtered onto GF/B Unifilter plates (Perkin-Elmer catalog number 6005177) and washed with 3 mL of ice-cold buffer per well. Filters were air dried and 35 μL of scintillation cocktail added to each well. Plates were counted in a Microbeta counter for bound radioactivity. […] Each assay was conducted in duplicate and the actual mean values are described, with results less than 0% reported as 0%. Ki values for peptides of the present invention were determined using Graph-Pad Prism® curve-fitting software.
# as §1
# MC4r = MC4r (Homo sapiens, UniProt P32245); experiment: Competitive inhibition binding assay using [I125]-NDP-α-MSH, hMC4r membranes; design: expressed in transfected cells; host or cells: HEK-293; settings: human recombinant MC4r, HEK-293 membranes, read-out: MC-4 Ki (average)
# MC4r, sequence (P32245 whole entry): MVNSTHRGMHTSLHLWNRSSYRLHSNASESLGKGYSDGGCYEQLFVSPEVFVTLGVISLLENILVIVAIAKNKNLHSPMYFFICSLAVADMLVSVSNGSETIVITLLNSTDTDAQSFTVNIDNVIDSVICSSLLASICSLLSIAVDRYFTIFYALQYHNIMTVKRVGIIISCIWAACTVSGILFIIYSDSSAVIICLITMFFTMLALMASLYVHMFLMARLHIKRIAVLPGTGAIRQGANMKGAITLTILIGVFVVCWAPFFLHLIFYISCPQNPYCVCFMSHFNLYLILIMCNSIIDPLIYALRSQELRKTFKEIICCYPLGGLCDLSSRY
# Experimental: as §2, §1
# [3] = Human clinical microdose study of C14-labeled oral formulation; type: in vivo; settings: single oral microdose of C14-labeled Example 9.3 formulated as for Lot 41
# Excerpt: A combination of Eudragit® L100-55, Eudragit® S-100 and Eudragit® FS30D polymethacrylates were selected and utilized at a weight ratio of 23.25:23.0:12.5, where the weight of L100-55 and S-100 was dry weight of solid material, and the weight of FS30D was of a commercially prepared aqueous formulation wherein the 12.5 grams of liquid FS30D contained 3.75 grams polymer, for a weight ratio of polymer of 23.25:23:3.75. The combination of polymethacrylates were placed in acetone and stirred for an extended period. […] The dried material was retrieved, diluted with additional dried polymetacrylate mixture not containing peptide to obtain the desired target concentration in a predetermined quantity of material, and milled to the desired diameter and sieved. The sieved material was placed within a gelatin size 2 capsule to provide an oral formulation.
# The oral formulation was administered in a microdose level to 24 subjects, divided into six cohorts of 4 subjects each.
# The only radioactive material identified in urine was the C14 labelled phenylalanine.
# MC1r = experiment: Functional selectivity evaluation at Cerep, MC1r; type: cell-based
Compound,Emax (hMC1r [1]),EC50 (hMC1r [1]),Ki (hMC1r [2]),Ki (MC4r),intact peptide in plasma or urine [3],peptide levels in fecal samples [3],EC50 (MC1r)
"CCCCC(NC(C)=O)C(=O)N[C@H]1CCC(=O)NCC[C@@H](C(N)=O)NC(=O)[C@H](CCCNC(=N)N)NC(=O)[C@@H](Cc2ccccc2)NC(=O)[C@H](Cc2c[nH]cn2)NC1=O (stereo partly drawn) [Example 9.44, Ac-Nle-cyclo(Glu-His-D-Phe-Arg-Dab)-NH2]",85%,0.32 nM,7 nM,–,–,–,–
"CCCC[C@H](NC(C)=O)C(=O)N[C@H]1CCC(=O)NC[C@@H](C(=O)N[C@@H](Cc2c[nH]c3ccccc23)C(C)=O)NC(=O)[C@H](CCCNC(=N)N)NC(=O)[C@@H](Cc2ccccc2)NC(=O)[C@H](Cc2c[nH]cn2)NC1=O [Example 9.26, Ac-Nle-cyclo(Glu-His-D-Phe-Arg-Dap)-Trp-OH]",81%,0.107 nM,1 nM,4700 nM,no intact peptide,significant and approximately equal levels,–
"CCCCC(NC(C)=O)C(=O)N[C@H]1CCC(=O)NCC[C@@H](C(N)=O)NC(=O)[C@H](C)NC(=O)[C@@H](Cc2ccccc2)NC(=O)[C@H](Cc2c[nH]cn2)NC1=O (stereo partly drawn) [Example 9.45, Ac-Nle-cyclo(Glu-His-D-Phe-Ala-Dab)-NH2]",73%,44 nM,645 nM,–,–,–,–
"CCCC[C@H](NC(C)=O)C(=O)N[C@H]1CCC(=O)NCCC(C(=O)N[C@@H](Cc2c[nH]c3ccccc23)C(N)=O)NC(=O)[C@H](C)NC(=O)[C@@H](Cc2ccccc2)NC(=O)[C@H](Cc2c[nH]cn2)NC1=O (stereo partly drawn) [Example 9.35, Ac-Nle-cyclo(Glu-His-D-Phe-Ala-Dab)-Trp-NH2]",72%,0.115 nM,0.8 nM,–,–,–,–
"CCCCC(NC(C)=O)C(=O)N[C@H]1CCC(=O)NCC[C@@H](C(=O)N[C@@H](CCCCN)C(N)=O)NC(=O)[C@H](CCCNC(=N)N)NC(=O)[C@@H](Cc2ccccc2)NC(=O)[C@H](Cc2c[nH]cn2)NC1=O (stereo partly drawn) [Example 9.52, Ac-Nle-cyclo(Glu-His-D-Phe-Arg-Dab)-Lys-NH2]",91%,0.175 nM,2 nM,7370 nM,–,–,–
"CCCC[C@H](NC(C)=O)C(=O)N[C@H]1CNC(=O)CCC(=O)NCC[C@@H](C(=O)N[C@@H](Cc2c[nH]c3ccccc23)C(N)=O)NC(=O)[C@H](CCCNC(=N)N)NC(=O)[C@@H](Cc2ccccc2)NC(=O)[C@H](Cc2c[nH]cn2)NC1=O [Example 9.43, Ac-Nle-cyclo(Dap-His-D-Phe-Arg-Dab)-Trp-NH2]",85%,0.016 nM,0.065 nM,860 nM,–,–,–
"SYSMEHFRWGKPVGKKRRPVKVYPNGAEDESAEAFPLEF [ACTH, reference compound]",–,–,–,–,–,–,980 nM
